Measurements as given in US6075057A, “Inhibition of carbohydrates metabolism by quinone compounds” (priority 1997, dated 2000).
Read-outs that look alike come from different tables or passages of the source.

Key:
Ames-microsomal assay = conditions: cited from earlier work
[1] = documented; cited from earlier work
[2] = system: L5178Y mouse lymphoma cells; conditions: in vitro and in vivo; cited from earlier work
[3] = system: microtubule polymerization; conditions: in vitro and in vivo; cited from earlier work
[4] = system: benzo[a]pyrene monooxygenase; conditions: cited from earlier work
HTLV-III/LAV = conditions: in vitro; cited from earlier work
[5] = system: β-mannosidase (EC 3.2.1.25); test: Initial screening assay for enzyme inhibition, β-mannosidase; format: biochemical, snail; conditions: 20 μM inhibitor, 2% MeOH
Protocol: (§1) Optically pure enantiomers of avarol were synthetically prepared. A survey of potential inhibitory activity by avarol against twelve glycosidases was performed according to general procedures^15 (see experimental section). The enzymes tested and their biological sources are listed in Table 1 along with any pertinent references found for a given enzyme. In order to determine a working range for enzyme and substrate concentrations in which the rate of product formation was linear and steady-state kinetics were applicable, initial rate studies with varying substrate concentrations were performed in the absence of inhibitor. The Michaelis constants (Km 's) and Vmax values for these enzymes were determined from these plots using standard graphical analysis procedures as described in ref. 17 and are summarized in Table 2.
(§2) Enzymatic Assays. Piperazine-N,N'-bix-(2-ethanesulfonic acid)(PIPES) buffer, enzymes, and substrates were purchased from Sigma and used as received. Buffer solutions and enzymes (desiccated) were stored at 4° C. p-Nitrophenyl glycoside substrates were stored desiccated at -20° C. Enzyme inhibition assays and initial rate studies were carried out with the appropriate p-nitrophenyl glycoside substrates following the general procedure of Kajimoto et al., J. Am. Chem. Soc. 113:6187 (1991) with the exception that amyloglucosidase (EC 3.2,1.3, Asp. niger) was assayed following the method of Saul et al., Arch. Biochem. Biophys. 221:593 (1983). Assays were performed in a Perkin-Elmer Lambda Array 3840 Spectrophotometer using the built-in drive method (resolution=0.25, average=8) in a quartz cuvette (1 cm pathlength). Background absorption spectra were acquired using millipore filtered water as medium. Steady-state kinetics were maintained by adjusting the amount of enzyme used in each assay so that less than 10% of the substrate was converted to product for the duration of the reaction. Reactions were monitored at 400 nm (the absorbance of the p-nitrophenol product, ε=3204.5 M^-1 cm^-1) for a given amount of time and the initial rates were calculated and expressed as μmols p-nitrophenol formed per unit enzyme per second. Absportion readings for control reactions were corrected for the small baseline absorbance at time zero. Small discrepancies between time zero absorbance readings in a given inhibition assay and a time zero reading in a control assay were used to correct the overall absorbance change calculated in the inhibition assay. […]
(§3) Typical assay: A 1.5-mL quartz cuvette was charged with 940 μL of PIPES-NaOAc buffer solution (pH 6.56), 20 μL of inhibitor solution, and 20 μL of enzyme solution. […] The reaction was monitored at 400 nm for 1 min and the absorbance change was used to calculate the initial hydrolysis rate. […]

[6] = system: α-galactosidase (EC 3.2.1.22); test: Initial screening assay for enzyme inhibition, α-galactosidase (E. coli); format: biochemical, Escherichia coli; conditions: 20 μM inhibitor, 2% MeOH
Protocol: as §1, §2, §3

[7] = system: amyloglucosidase (EC 3.2.1.3); test: Initial screening assay for enzyme inhibition, amyloglucosidase; format: biochemical, Aspergillus niger; conditions: for % Enzyme activity relative to control: amyloglucosidase, 20 μM inhibitor, 2% MeOH
Protocol: as §1
(§4) Enzymatic Assays. Piperazine-N,N'-bix-(2-ethanesulfonic acid)(PIPES) buffer, enzymes, and substrates were purchased from Sigma and used as received. Buffer solutions and enzymes (desiccated) were stored at 4° C. p-Nitrophenyl glycoside substrates were stored desiccated at -20° C. Enzyme inhibition assays and initial rate studies were carried out with the appropriate p-nitrophenyl glycoside substrates following the general procedure of Kajimoto et al., J. Am. Chem. Soc. 113:6187 (1991) with the exception that amyloglucosidase (EC 3.2,1.3, Asp. niger) was assayed following the method of Saul et al., Arch. Biochem. Biophys. 221:593 (1983). Assays were performed in a Perkin-Elmer Lambda Array 3840 Spectrophotometer using the built-in drive method (resolution=0.25, average=8) in a quartz cuvette (1 cm pathlength). Background absorption spectra were acquired using millipore filtered water as medium. Steady-state kinetics were maintained by adjusting the amount of enzyme used in each assay so that less than 10% of the substrate was converted to product for the duration of the reaction. Reactions were monitored at 400 nm (the absorbance of the p-nitrophenol product, ε=3204.5 M^-1 cm^-1) for a given amount of time and the initial rates were calculated and expressed as μmols p-nitrophenol formed per unit enzyme per second. Absportion readings for control reactions were corrected for the small baseline absorbance at time zero. Small discrepancies between time zero absorbance readings in a given inhibition assay and a time zero reading in a control assay were used to correct the overall absorbance change calculated in the inhibition assay. Inhibitors were dissolved in uv-grade absolute methanol.
(§5) Typical assay: A 1.5-mL quartz cuvette was charged with 940 μL of PIPES-NaOAc buffer solution (pH 6.56), 20 μL of inhibitor solution, and 20 μL of enzyme solution. The result was mixed well and then equilibrated at 37° C. for two minutes. 20 μL of the appropriate p-nitrophenyl glycoside solution was then added to initiate the reaction with rapid mixing. The reaction was monitored at 400 nm for 1 min and the absorbance change was used to calculate the initial hydrolysis rate. Lineweaver-Burk plots were constructed by repeating this procedure with varying substrate and inhibitor concentrations.

[8] = target: T1, β-galactosidase (EC 3.2.1.23, grade XI) (Aspergillus oryzae, UniProt Q2UCU3); test: Initial screening assay for enzyme inhibition, β-galactosidase (Asp. oryzae); format: biochemical; conditions: 20 μM inhibitor, 2% MeOH, read-out: % Enzyme activity relative to control
T1 construct: purchased Sigma; host or cells: Aspergillus oryzae
Protocol: as §1, §2, §3

[9] = target: T2, β-galactosidase (EC 3.2.1.23) (Aspergillus niger, UniProt P29853); test: Initial screening assay for enzyme inhibition, β-galactosidase (Asp. niger); format: biochemical; conditions: 20 μM inhibitor, 2% MeOH, read-out: % Enzyme activity relative to control
T2 construct: purchased Sigma; host or cells: Aspergillus niger
Protocol: as §1, §2, §3

[10] = target: T3, α-glucosidase (EC 3.2.1.20, type IV) (Saccharomyces cerevisiae, UniProt P53341); test: Initial screening assay for enzyme inhibition, α-glucosidase; format: biochemical, brewer's yeast
T3 construct: purchased Sigma; host or cells: brewer's yeast
Protocol: as §1
Initial screening assays with the enantiomeric avarols indicated significant activity by these compounds against only two of the twelve enzymes studies. […] This can occur when the two species compete for the same site or nearby sites on the enzyme. The equilibria that describe competitive inhibition are shown below. [drawing 3]
as §4, §5

[11] = target: T4, β-xylosidase (EC 3.2.1.37) (Aspergillus niger, UniProt O00089); test: Initial screening assay for enzyme inhibition, β-xylosidase; format: biochemical; conditions: 20 μM inhibitor, 2% MeOH, read-out: % Enzyme activity relative to control
T4 construct: purchased Sigma; host or cells: Aspergillus niger
Protocol: as §1, §2, §3

[12] = target: T5, α-L-fucosidase (EC 3.2.1.51) (Bos taurus, UniProt Q2KIM0); test: Initial screening assay for enzyme inhibition, α-L-fucosidase; format: biochemical, bovine kidney; conditions: read-out: % Enzyme activity relative to control
T5 construct: purchased Sigma; host or cells: bovine kidney
T5 sequence (Q2KIM0 23-468): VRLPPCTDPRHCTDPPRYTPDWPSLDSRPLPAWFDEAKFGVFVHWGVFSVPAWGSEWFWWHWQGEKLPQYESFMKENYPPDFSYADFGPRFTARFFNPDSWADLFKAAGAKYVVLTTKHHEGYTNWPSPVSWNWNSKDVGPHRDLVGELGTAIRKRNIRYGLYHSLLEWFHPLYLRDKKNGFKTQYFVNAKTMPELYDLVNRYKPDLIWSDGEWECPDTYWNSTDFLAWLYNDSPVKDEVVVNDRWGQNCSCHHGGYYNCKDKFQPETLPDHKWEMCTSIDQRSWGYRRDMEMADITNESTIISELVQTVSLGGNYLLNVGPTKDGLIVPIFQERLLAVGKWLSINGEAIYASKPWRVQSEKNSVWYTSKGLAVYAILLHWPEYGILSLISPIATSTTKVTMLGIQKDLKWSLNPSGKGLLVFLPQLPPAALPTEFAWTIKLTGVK
Protocol: as §1, §2, §3

[13] = target: T6, α-galactosidase (EC 3.2.1.22) (Coffea arabica, UniProt Q42656); test: Initial screening assay for enzyme inhibition, α-galactosidase (green coffee beans); format: biochemical; conditions: read-out: % Enzyme activity relative to control
T6 construct: purchased Sigma; host or cells: green coffee beans
Protocol: as §1, §2, §3

[14] = system: β-N-acetylglucosaminidase (EC 3.2.1.30); test: Initial screening assay for enzyme inhibition, β-N-acetylglucosaminidase; format: biochemical, bovine kidney; conditions: 20 μM inhibitor, 2% MeOH
Protocol: as §1, §2, §3

T3 sequence (P53341 whole entry): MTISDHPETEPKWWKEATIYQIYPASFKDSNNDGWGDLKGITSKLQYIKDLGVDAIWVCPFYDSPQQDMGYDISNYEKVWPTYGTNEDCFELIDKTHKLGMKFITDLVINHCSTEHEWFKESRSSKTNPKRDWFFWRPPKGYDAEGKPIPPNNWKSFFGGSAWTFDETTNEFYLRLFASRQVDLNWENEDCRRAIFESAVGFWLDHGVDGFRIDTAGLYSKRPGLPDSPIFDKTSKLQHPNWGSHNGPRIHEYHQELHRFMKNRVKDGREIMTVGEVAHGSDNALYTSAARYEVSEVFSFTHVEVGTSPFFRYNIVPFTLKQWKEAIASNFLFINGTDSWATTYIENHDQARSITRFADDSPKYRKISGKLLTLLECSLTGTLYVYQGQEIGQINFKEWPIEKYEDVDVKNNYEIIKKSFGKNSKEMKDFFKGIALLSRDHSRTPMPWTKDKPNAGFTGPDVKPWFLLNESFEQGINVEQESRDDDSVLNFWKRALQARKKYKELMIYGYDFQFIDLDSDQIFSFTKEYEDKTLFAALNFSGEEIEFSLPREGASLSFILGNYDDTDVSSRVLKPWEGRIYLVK
T4 sequence (O00089 27-804): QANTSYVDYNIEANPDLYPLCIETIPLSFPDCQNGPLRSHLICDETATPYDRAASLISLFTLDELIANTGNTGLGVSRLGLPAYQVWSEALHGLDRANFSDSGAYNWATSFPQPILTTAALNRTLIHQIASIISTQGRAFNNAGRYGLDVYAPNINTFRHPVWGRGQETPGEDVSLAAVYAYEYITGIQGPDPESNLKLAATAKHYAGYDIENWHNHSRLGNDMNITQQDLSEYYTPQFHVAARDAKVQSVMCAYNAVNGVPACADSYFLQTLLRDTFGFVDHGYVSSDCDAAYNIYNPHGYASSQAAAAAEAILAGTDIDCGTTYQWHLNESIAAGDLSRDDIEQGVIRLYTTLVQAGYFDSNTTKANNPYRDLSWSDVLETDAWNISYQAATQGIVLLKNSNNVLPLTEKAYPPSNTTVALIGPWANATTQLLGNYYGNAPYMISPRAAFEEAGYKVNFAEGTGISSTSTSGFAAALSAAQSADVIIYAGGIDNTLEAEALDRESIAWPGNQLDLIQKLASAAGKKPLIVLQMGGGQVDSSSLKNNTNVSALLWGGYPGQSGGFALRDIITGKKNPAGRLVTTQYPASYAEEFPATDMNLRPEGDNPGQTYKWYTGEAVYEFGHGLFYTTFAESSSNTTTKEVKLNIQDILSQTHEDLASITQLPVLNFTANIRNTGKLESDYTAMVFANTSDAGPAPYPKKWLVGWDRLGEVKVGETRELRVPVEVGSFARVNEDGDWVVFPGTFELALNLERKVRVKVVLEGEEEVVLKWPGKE
T2 sequence (P29853 20-1006): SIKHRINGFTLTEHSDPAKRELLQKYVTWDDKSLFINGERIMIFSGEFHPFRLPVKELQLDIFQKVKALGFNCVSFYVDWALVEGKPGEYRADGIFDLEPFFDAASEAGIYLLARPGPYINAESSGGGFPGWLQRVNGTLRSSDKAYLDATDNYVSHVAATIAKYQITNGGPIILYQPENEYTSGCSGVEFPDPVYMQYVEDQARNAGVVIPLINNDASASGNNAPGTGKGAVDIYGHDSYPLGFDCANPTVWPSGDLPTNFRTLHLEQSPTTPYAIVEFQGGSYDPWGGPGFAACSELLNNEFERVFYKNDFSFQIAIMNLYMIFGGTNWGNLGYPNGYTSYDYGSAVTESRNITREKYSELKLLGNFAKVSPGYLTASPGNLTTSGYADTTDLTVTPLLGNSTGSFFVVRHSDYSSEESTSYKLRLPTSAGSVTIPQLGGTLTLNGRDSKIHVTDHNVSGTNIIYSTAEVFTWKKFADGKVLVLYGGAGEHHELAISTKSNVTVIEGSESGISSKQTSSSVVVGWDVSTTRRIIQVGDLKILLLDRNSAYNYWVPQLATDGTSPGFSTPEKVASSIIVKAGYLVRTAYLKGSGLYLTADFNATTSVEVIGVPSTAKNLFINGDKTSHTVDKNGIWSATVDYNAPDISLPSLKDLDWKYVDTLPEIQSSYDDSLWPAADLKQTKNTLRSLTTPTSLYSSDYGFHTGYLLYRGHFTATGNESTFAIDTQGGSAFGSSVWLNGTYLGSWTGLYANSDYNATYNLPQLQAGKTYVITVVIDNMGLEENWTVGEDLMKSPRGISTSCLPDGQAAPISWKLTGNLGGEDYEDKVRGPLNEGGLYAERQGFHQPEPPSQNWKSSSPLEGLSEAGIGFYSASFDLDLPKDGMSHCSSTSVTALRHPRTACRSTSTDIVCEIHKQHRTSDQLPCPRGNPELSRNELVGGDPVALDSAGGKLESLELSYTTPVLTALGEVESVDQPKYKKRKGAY
T6 sequence (Q42656 16-378): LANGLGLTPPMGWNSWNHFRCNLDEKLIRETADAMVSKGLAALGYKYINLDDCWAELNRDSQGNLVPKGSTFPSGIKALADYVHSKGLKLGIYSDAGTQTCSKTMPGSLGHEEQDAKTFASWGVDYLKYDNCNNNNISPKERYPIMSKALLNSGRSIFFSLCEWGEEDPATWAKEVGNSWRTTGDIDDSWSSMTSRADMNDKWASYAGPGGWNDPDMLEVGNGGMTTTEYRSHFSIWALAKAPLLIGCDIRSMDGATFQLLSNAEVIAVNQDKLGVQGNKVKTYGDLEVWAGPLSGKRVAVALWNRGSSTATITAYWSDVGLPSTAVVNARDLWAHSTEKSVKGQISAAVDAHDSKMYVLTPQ
T1 sequence (Q2UCU3 19-1005): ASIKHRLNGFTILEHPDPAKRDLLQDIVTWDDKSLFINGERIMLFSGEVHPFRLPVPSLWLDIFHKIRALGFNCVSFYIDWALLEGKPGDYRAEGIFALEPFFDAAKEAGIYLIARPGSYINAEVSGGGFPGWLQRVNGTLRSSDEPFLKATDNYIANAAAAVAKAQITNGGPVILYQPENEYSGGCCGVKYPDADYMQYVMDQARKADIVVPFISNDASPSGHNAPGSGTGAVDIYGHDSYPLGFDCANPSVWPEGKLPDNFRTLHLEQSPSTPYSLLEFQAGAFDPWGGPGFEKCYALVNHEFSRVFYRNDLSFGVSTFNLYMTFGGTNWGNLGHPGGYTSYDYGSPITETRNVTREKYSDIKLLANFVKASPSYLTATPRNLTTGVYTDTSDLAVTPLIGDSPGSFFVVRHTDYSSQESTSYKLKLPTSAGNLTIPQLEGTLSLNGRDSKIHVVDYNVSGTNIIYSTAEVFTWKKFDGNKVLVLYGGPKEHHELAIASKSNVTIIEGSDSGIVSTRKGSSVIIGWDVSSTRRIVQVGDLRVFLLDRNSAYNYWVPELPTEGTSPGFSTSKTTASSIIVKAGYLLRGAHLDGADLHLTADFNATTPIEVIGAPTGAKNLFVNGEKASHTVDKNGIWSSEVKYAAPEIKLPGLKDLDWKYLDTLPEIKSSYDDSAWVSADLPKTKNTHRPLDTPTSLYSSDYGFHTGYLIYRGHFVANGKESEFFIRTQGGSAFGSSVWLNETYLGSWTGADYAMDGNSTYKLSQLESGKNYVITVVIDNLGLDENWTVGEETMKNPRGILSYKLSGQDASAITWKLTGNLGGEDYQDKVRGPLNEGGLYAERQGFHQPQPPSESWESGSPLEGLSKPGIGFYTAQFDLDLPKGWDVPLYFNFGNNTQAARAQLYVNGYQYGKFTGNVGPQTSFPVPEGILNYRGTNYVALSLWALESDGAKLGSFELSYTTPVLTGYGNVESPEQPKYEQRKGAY

| Structure (SMILES) | mutagenicity (Ames-microsomal assay) | toxicity [1] | cytotoxicity against L5178Y mouse lymphoma cells [2] | inhibition of microtubule polymerization [3] | antimutagenic activity through inhibition of benzo[a]pyrene monooxygenase [4] | inhibition of replication of HTLV-III/LAV (HTLV-III/LAV) | % Enzyme activity relative to control [5] | % Enzyme activity relative to control [6] | inhibition of amyloglucosidase (in words) ([7]; Table 3) | % Enzyme activity relative to control [7] | remaining activity at 20 µM [8] | remaining activity at 20 µM [9] | inhibition at 20 µM ([10]; 20 μM) | remaining activity at 20 µM ([10]; α-glucosidase, 20 μM inhibitor, 2% MeOH, read-out: % Enzyme activity relative to control) | remaining activity at 20 µM [11] | remaining activity at 20 µM ([12]; α-L-fucosidase, 20 μM inhibitor, 2% MeOH) | remaining activity at 20 µM ([13]; α-galactosidase (green coffee beans), 20 μM inhibitor, 2% MeOH) | % Enzyme activity relative to control [14] | remaining activity at 20 µM [12] | remaining activity at 20 µM [13] |
| --- | --- | --- | --- | --- | --- | --- | --- | --- | --- | --- | --- | --- | --- | --- | --- | --- | --- | --- | --- | --- |
| CC1=CCC[C@H]2[C@](C)(Cc3cc(O)ccc3O)[C@@H](C)CC[C@]12C [avarol] | neither direct nor indirect mutagens | low toxicity | highly selective cytotoxicity | inhibition of microtubule polymerization | antimutagenic activity through the inhibition of benzo[a]pyrene monooxygenase | inhibition of replication | – | – | – | – | – | – | – | – | – | – | – | – | – | – |
| C=C1CCC[C@H]2[C@](C)(CC3=C(O)C(=O)C=C(OC)C3=O)[C@@H](C)CC[C@]12C [ilimaquinone, reference compound] | – | – | – | – | – | – | 108% | 101% | strong inhibitor of amyloglucosidase | 57% | 98% | 111% | 20% | 82% | 105% | 109% | 97% | 96% | – | – |
| CC1=CCC[C@H]2[C@](C)(CC3=CC(=O)C=CC3=O)[C@@H](C)CC[C@]12C [avarone, Avarone] | neither direct nor indirect mutagens | low toxicity | – | – | antimutagenic activity through the inhibition of benzo[a]pyrene monooxygenase | – | – | – | – | – | – | – | – | – | – | – | – | – | – | – |
| CC1=CCC[C@H]2[C@](C)(CC/C(C)=C/C[n+]3cn(C)c4ncnc(N)c43)[C@@H](C)CC[C@]12C [C-4-10] | – | – | – | – | – | – | 109% | 102% | – | 94% | 108% | 95% | – | – | 102% | – | – | 91% | 100% | 96% |
